Structures are written as SMILES.

The target in this experiment is WDR5 (Homo sapiens, UniProt P61964). The experiment in a line: Competition-based fluorescence polarization anisotropy assay. Conditions: binding to WDR5; displacement of FITC-labeled small molecule probe (analogous to Example J2 or HCH-25) or peptide probe FITC-AHx-SEEEIDVVSV; pH 6.0; Ki converted from IC50. The essentials:
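Ki values derive from displacement of either a fluorescent small-molecule probe or a FITC-peptide probe from WDR5, monitored by fluorescence polarization. Assay run at pH 6.0 in 200 mM phosphate with 300 mM NaCl, 0.5 mM TCEP and 0.1% Chaps.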
As to `COCCNS(=O)(=O)c1cc(Cl)cc(NS(=O)(=O)c2cc(Br)ccc2O)c1O` [Example S31, 5-bromo-N-(5-chloro-2-hydroxy-3-(N-(2-methoxyethyl)sulfamoyl)phenyl)-2-hydroxybenzenesulfonamide], the inhibition constant (Ki) stood at 0.65 µM.
The value for `O=S(=O)(Nc1cc(Cl)cc(S(=O)(=O)NCC2CCCO2)c1O)c1cc(Br)cc(Cl)c1O` (stereo not shown) [Example S32, 5-Bromo-3-chloro-N-(5-chloro-2-hydroxy-3-(N-((tetrahydrofuran-2-yl)methyl)sulfamoyl)phenyl)-2-hydroxybenzenesulfonamide] was 0.44 µM; that for `O=S(=O)(Nc1cc(Cl)cc(S(=O)(=O)NCC2CCCO2)c1O)c1cc(Br)ccc1O` (stereo not shown) [Example S32-2, 5-Bromo-N-(5-chloro-2-hydroxy-3-(N-((tetrahydrofuran-2-yl)methyl)sulfamoyl)phenyl)-2-hydroxybenzenesulfonamide] was 0.53 µM; that for `CN1CCN(CCNS(=O)(=O)c2cc(Cl)cc(NS(=O)(=O)c3cc(Br)cc(Cl)c3O)c2O)CC1` [Example S33, 5-Bromo-3-chloro-N-(5-chloro-2-hydroxy-3-(N-(2-(4-methylpiperazin-1-yl)ethyl)sulfamoyl)phenyl)-2-hydroxybenzenesulfonamide] was 0.73 µM.
In the case of `CCN(CC)CCSc1cc(Cl)cc(NS(=O)(=O)c2cc(Br)cc(Cl)c2O)c1` [Example S34, 5-Bromo-3-chloro-N-(3-chloro-5-((2-(diethylamino)ethyl)thio)phenyl)-2-hydroxybenzenesulfonamide] it was 0.51 µM; in that of `CCN(CC)CCS(=O)(=O)c1cc(Cl)cc(NS(=O)(=O)c2cc(Br)cc(Cl)c2O)c1` [Example S35, 5-Bromo-3-chloro-N-(3-chloro-5-((2-(diethylamino)ethyl)sulfonyl)phenyl)-2-hydroxybenzenesulfonamide], 0.34 µM; in that of `CC(C)N(CCSc1cc(Cl)cc(NS(=O)(=O)c2cc(Br)cc(Cl)c2O)c1)C(C)C` [Example S36, 5-Bromo-3-chloro-N-(3-chloro-5-((2-(diisopropylamino)ethyl)thio)phenyl)-2-hydroxybenzenesulfonamide], 0.78 µM.
The value for `CC(C)N(CCS(=O)(=O)c1cc(Cl)cc(NS(=O)(=O)c2cc(Br)cc(Cl)c2O)c1)C(C)C` [Example S37, 5-Bromo-3-chloro-N-(3-chloro-5-((2-(diisopropylamino)ethyl)sulfonyl)phenyl)-2-hydroxybenzenesulfonamide] was 0.4 µM.
`CCN(CC)CCS(=O)(=O)c1cc(Cl)cc(NS(=O)(=O)c2cc(Br)ccc2O)c1` [Example S40, 5-Bromo-N-(3-chloro-5-((2-(diethylamino)ethyl)sulfonyl)phenyl)-2-hydroxybenzenesulfonamide] showed a Ki of 4.38 µM.
In the case of `CC(C)N(CCS(=O)(=O)c1cc(Cl)cc(NS(=O)(=O)c2cc(Br)ccc2O)c1)C(C)C` [Example S41, 5-Bromo-N-(3-chloro-5-((2-(diisopropylamino)ethyl)sulfonyl)phenyl)-2-hydroxybenzenesulfonamide] it was 3.81 µM; in that of `CCN(CC)CCS(=O)(=O)c1cc(Cl)cc(NS(=O)(=O)c2cc(Br)cc3cccnc23)c1` [Example S43, 6-Bromo-N-(3-chloro-5-((2-(diethylamino)ethyl)sulfonyl)phenyl)quinoline-8-sulfonamide], 31.3 µM.
In the case of `CCN(CC)CCS(=O)(=O)c1cc(Cl)cc(NS(=O)(=O)c2cc(Br)ccc2OC)c1` [Example S46, 5-Bromo-N-(3-chloro-5-((2-(diethylamino)ethyl)sulfonyl)phenyl)-2-methoxybenzenesulfonamide] it was 20.6 µM; in that of `COc1ccc(Br)cc1S(=O)(=O)Nc1cc(Cl)cc(S(C)(=O)=O)c1O` [Example S49, 5-Bromo-N-(5-chloro-2-hydroxy-3-(methylsulfonyl)phenyl)-2-methoxybenzenesulfonamide], 0.29 µM.

The values are drawn from US12398097B2, “WDR5-MYC inhibitors” (Vanderbilt University, priority 2019, dated 2025).
